Measurements from patent US12545652B2, “Crystalline forms of a TYK2 inhibitor” (Sareum Limited, priority 2020, dated 2026).

Assay: Anti-solvent addition crystallisation at 60° C., observations and form fate by XRPD
Assay type: physicochemical
Conditions: for Crystalline Form fate by XRPD: Addition at 60° C.
Protocol: The equilibration of Form A in a range of solvents with thermal modulation indicated a range of suitable solvents and anti-solvents. Consequently, Form A was dissolved in a range of four solvents at an elevated temperature, clarified and charged with anti-solvent at the elevated temperature to assess the propensity of the compound towards anti-solvent-driven crystallisation.
2-(2,6-dichlorophenyl)-5-[4-(1,1-dioxo-1,4-thiazinane-4-carbonyl)anilino]oxazole-4-carboxamide Form A, 4×150-152 mg, was weighed into four crystallisation tubes. Four different solvents (see Table 8) were then charged to the solids and the resulting mixtures heated to 60° C. Where suspensions persisted, additional solvent was charged to achieve dissolution. Upon dissolution of the four mixtures, the solutions were clarified and aliquots containing ca. 30 mg of the compound were charged to four crystallisation tubes.
To each of the four aliquots was charged an anti-solvent (see Table 8), ca. 5 vol., at 60° C. and immediate observations were made. Observations were made after equilibration for 1 hour before additional anti-solvent, 5 vol., was charged to all mixtures. Where suspensions or immiscible mixtures had formed, no further anti-solvent was charged. To all solutions and hazes, additional anti-solvent up to 20 vol. total charge was added.
The mixtures were equilibrated at 60° C. for another hour before cooling to 25° C. over ca. 3 hours and equilibrated for ca. 14½ hours. […] Upon isolation, all solids were dried in vacuo under air for ca. 1 hour and then dried in the oven in vacuo at 45° C. for 70 hours.

Observation on outcome (ID A1, THF/water, 4:1 10 vol., Cyclohexane, 25° C., 20 vol, 19 Hrs): Susp.
Observation on outcome (ID A1, THF/water, 4:1 10 vol., Cyclohexane, 60° C., 5 vol. anti-solvent, 1 Hr): Susp.
Observation on outcome (ID A1, THF/water, 4:1 10 vol., Cyclohexane, 60° C., 5 vol. anti-solvent, Immediate): Gum
Observation on outcome (ID A1, THF/water, 4:1 10 vol., Cyclohexane, 60° C., 10 vol. anti-solvent): Susp.
Observation on outcome (ID A2, THF/water, 4:1 10 vol., Heptane, 25° C., 20 vol, 19 Hrs): Gummy
Observation on outcome (ID A2, THF/water, 4:1 10 vol., Heptane, 60° C., 5 vol. anti-solvent, 1 Hr): Susp.
Observation on outcome (ID A2, THF/water, 4:1 10 vol., Heptane, 60° C., 5 vol. anti-solvent, Immediate): Gum
Observation on outcome (ID A2, THF/water, 4:1 10 vol., Heptane, 60° C., 10 vol. anti-solvent): Susp.
Observation on outcome (ID A3, THF/water, 4:1 10 vol., Benzotrifluoride, 25° C., 20 vol, 19 Hrs): Susp.
Observation on outcome (ID A3, THF/water, 4:1 10 vol., Benzotrifluoride, 60° C., 5 vol. anti-solvent, 1 Hr): Susp.
Observation on outcome (ID A3, THF/water, 4:1 10 vol., Benzotrifluoride, 60° C., 5 vol. anti-solvent, Immediate): Susp.
Observation on outcome (ID A3, THF/water, 4:1 10 vol., Benzotrifluoride, 60° C., 10 vol. anti-solvent): Susp.
Observation on outcome (ID A4, THF/water, 4:1 10 vol., 2-Chlorobutane, 25° C., 20 vol, 19 Hrs): Susp.
Observation on outcome (ID A4, THF/water, 4:1 10 vol., 2-Chlorobutane, 60° C., 5 vol. anti-solvent, 1 Hr): Susp.
Observation on outcome (ID A4, THF/water, 4:1 10 vol., 2-Chlorobutane, 60° C., 5 vol. anti-solvent, Immediate): Susp.
Observation on outcome (ID A4, THF/water, 4:1 10 vol., 2-Chlorobutane, 60° C., 10 vol. anti-solvent): Susp.
Observation on outcome (ID B1, THF 25 vol., Cyclohexane, 25° C., 20 vol, 19 Hrs): Susp.
Observation on outcome (ID B1, THF 25 vol., Cyclohexane, 60° C., 5 vol. anti-solvent, 1 Hr): Susp.
Observation on outcome (ID B1, THF 25 vol., Cyclohexane, 60° C., 5 vol. anti-solvent, Immediate): Gum→Soln.
Observation on outcome (ID B1, THF 25 vol., Cyclohexane, 60° C., 10 vol. anti-solvent): Susp.
Observation on outcome (ID B2, THF 25 vol., Heptane, 25° C., 20 vol, 19 Hrs): Susp.
Observation on outcome (ID B2, THF 25 vol., Heptane, 60° C., 5 vol. anti-solvent, 1 Hr): Susp.
Observation on outcome (ID B2, THF 25 vol., Heptane, 60° C., 5 vol. anti-solvent, Immediate): Gum→Soln.
Observation on outcome (ID B2, THF 25 vol., Heptane, 60° C., 10 vol. anti-solvent): Susp.
Observation on outcome (ID B3, THF 25 vol., Benzotrifluoride, 25° C., 20 vol, 19 Hrs): Susp.
Observation on outcome (ID B3, THF 25 vol., Benzotrifluoride, 60° C., 5 vol. anti-solvent, 1 Hr): Susp.
Observation on outcome (ID B3, THF 25 vol., Benzotrifluoride, 60° C., 5 vol. anti-solvent, Immediate): Soln.
Observation on outcome (ID B3, THF 25 vol., Benzotrifluoride, 60° C., 10 vol. anti-solvent): Susp.
Observation on outcome (ID B4, THF 25 vol., 2-Chlorobutane, 25° C., 20 vol, 19 Hrs): Susp.
Observation on outcome (ID B4, THF 25 vol., 2-Chlorobutane, 60° C., 5 vol. anti-solvent, 1 Hr): Susp.
Observation on outcome (ID B4, THF 25 vol., 2-Chlorobutane, 60° C., 5 vol. anti-solvent, Immediate): Soln.
Observation on outcome (ID B4, THF 25 vol., 2-Chlorobutane, 60° C., 10 vol. anti-solvent): Susp.
Observation on outcome (ID C1, Nitromethane 50 vol., Cyclohexane, 25° C., 20 vol, 19 Hrs): Bi. Susp.
Observation on outcome (ID C1, Nitromethane 50 vol., Cyclohexane, 60° C., 5 vol. anti-solvent, 1 Hr): Immiscible
Observation on outcome (ID C1, Nitromethane 50 vol., Cyclohexane, 60° C., 5 vol. anti-solvent, Immediate): Immiscible
Observation on outcome (ID C1, Nitromethane 50 vol., Cyclohexane, 60° C., 10 vol. anti-solvent): Immiscible
Observation on outcome (ID C2, Nitromethane 50 vol., Heptane, 25° C., 20 vol, 19 Hrs): Bi. Susp.
Observation on outcome (ID C2, Nitromethane 50 vol., Heptane, 60° C., 5 vol. anti-solvent, 1 Hr): Soln.
Observation on outcome (ID C2, Nitromethane 50 vol., Heptane, 60° C., 5 vol. anti-solvent, Immediate): Soln.
Observation on outcome (ID C2, Nitromethane 50 vol., Heptane, 60° C., 10 vol. anti-solvent): Soln.
Observation on outcome (ID C2, Nitromethane 50 vol., Heptane, 60° C., 15 vol. anti-solvent): Soln.
Observation on outcome (ID C2, Nitromethane 50 vol., Heptane, 60° C., 20 vol. anti-solvent): Soln.
Observation on outcome (ID C3, Nitromethane 50 vol., Benzotrifluoride, 25° C., 20 vol, 19 Hrs): Susp.
Observation on outcome (ID C3, Nitromethane 50 vol., Benzotrifluoride, 60° C., 5 vol. anti-solvent, 1 Hr): Soln.
Observation on outcome (ID C3, Nitromethane 50 vol., Benzotrifluoride, 60° C., 5 vol. anti-solvent, Immediate): Soln.
Observation on outcome (ID C3, Nitromethane 50 vol., Benzotrifluoride, 60° C., 10 vol. anti-solvent): Soln.
Observation on outcome (ID C3, Nitromethane 50 vol., Benzotrifluoride, 60° C., 15 vol. anti-solvent): Soln.
Observation on outcome (ID C3, Nitromethane 50 vol., Benzotrifluoride, 60° C., 20 vol. anti-solvent): Soln.
Observation on outcome (ID C4, Nitromethane 50 vol., 2-Chlorobutane, 25° C., 20 vol, 19 Hrs): Susp.
Observation on outcome (ID C4, Nitromethane 50 vol., 2-Chlorobutane, 60° C., 5 vol. anti-solvent, 1 Hr): Soln.
Observation on outcome (ID C4, Nitromethane 50 vol., 2-Chlorobutane, 60° C., 5 vol. anti-solvent, Immediate): Soln.
Observation on outcome (ID C4, Nitromethane 50 vol., 2-Chlorobutane, 60° C., 10 vol. anti-solvent): Soln.
Observation on outcome (ID C4, Nitromethane 50 vol., 2-Chlorobutane, 60° C., 15 vol. anti-solvent): Soln.
Observation on outcome (ID C4, Nitromethane 50 vol., 2-Chlorobutane, 60° C., 20 vol. anti-solvent): Soln.
Observation on outcome (ID D1, MeCN/water, 4:1 55 vol., Cyclohexane, 25° C., 20 vol, 19 Hrs): Immiscible
Observation on outcome (ID D1, MeCN/water, 4:1 55 vol., Cyclohexane, 60° C., 5 vol. anti-solvent, 1 Hr): Immiscible
Observation on outcome (ID D1, MeCN/water, 4:1 55 vol., Cyclohexane, 60° C., 5 vol. anti-solvent, Immediate): Immiscible
Observation on outcome (ID D1, MeCN/water, 4:1 55 vol., Cyclohexane, 60° C., 10 vol. anti-solvent): Immiscible
Observation on outcome (ID D2, MeCN/water, 4:1 55 vol., Heptane, 25° C., 20 vol, 19 Hrs): Bi. Susp.
Observation on outcome (ID D2, MeCN/water, 4:1 55 vol., Heptane, 60° C., 5 vol. anti-solvent, 1 Hr): Immiscible
Observation on outcome (ID D2, MeCN/water, 4:1 55 vol., Heptane, 60° C., 5 vol. anti-solvent, Immediate): Immiscible
Observation on outcome (ID D2, MeCN/water, 4:1 55 vol., Heptane, 60° C., 10 vol. anti-solvent): Immiscible
Observation on outcome (ID D3, MeCN/water, 4:1 55 vol., Benzotrifluoride, 25° C., 20 vol, 19 Hrs): Susp.
Observation on outcome (ID D3, MeCN/water, 4:1 55 vol., Benzotrifluoride, 60° C., 5 vol. anti-solvent, 1 Hr): Soln.
Observation on outcome (ID D3, MeCN/water, 4:1 55 vol., Benzotrifluoride, 60° C., 5 vol. anti-solvent, Immediate): Soln.
Observation on outcome (ID D3, MeCN/water, 4:1 55 vol., Benzotrifluoride, 60° C., 10 vol. anti-solvent): Haze
Observation on outcome (ID D3, MeCN/water, 4:1 55 vol., Benzotrifluoride, 60° C., 15 vol. anti-solvent): Immiscible
Observation on outcome (ID D3, MeCN/water, 4:1 55 vol., Benzotrifluoride, 60° C., 20 vol. anti-solvent): Immiscible
Observation on outcome (ID D4, MeCN/water, 4:1 55 vol., 2-Chlorobutane, 25° C., 20 vol, 19 Hrs): Bi. Susp.
Observation on outcome (ID D4, MeCN/water, 4:1 55 vol., 2-Chlorobutane, 60° C., 5 vol. anti-solvent, 1 Hr): Soln.
Observation on outcome (ID D4, MeCN/water, 4:1 55 vol., 2-Chlorobutane, 60° C., 5 vol. anti-solvent, Immediate): Soln.
Observation on outcome (ID D4, MeCN/water, 4:1 55 vol., 2-Chlorobutane, 60° C., 10 vol. anti-solvent): Haze
Observation on outcome (ID D4, MeCN/water, 4:1 55 vol., 2-Chlorobutane, 60° C., 15 vol. anti-solvent): Haze
Observation on outcome (ID D4, MeCN/water, 4:1 55 vol., 2-Chlorobutane, 60° C., 20 vol. anti-solvent): Haze
Crystalline Form fate by XRPD (MeCN/water, 4:1 55 vol., 2-Chlorobutane): Form A
Crystalline Form fate by XRPD (MeCN/water, 4:1 55 vol., Benzotrifluoride): Form A
Crystalline Form fate by XRPD (MeCN/water, 4:1 55 vol., Heptane): Form A
Crystalline Form fate by XRPD (Nitromethane 50 vol., 2-Chlorobutane): Form C +
Crystalline Form fate by XRPD (Nitromethane 50 vol., Benzotrifluoride): Form B
Crystalline Form fate by XRPD (Nitromethane 50 vol., Heptane): Form B
Crystalline Form fate by XRPD (THF 25 vol., 2-Chlorobutane): Form B
Crystalline Form fate by XRPD (THF 25 vol., Benzotrifluoride): Form B
Crystalline Form fate by XRPD (THF 25 vol., Heptane): Form B
Crystalline Form fate by XRPD (THF/water, 4:1 10 vol., 2-Chlorobutane): Form A
Crystalline Form fate by XRPD (THF/water, 4:1 10 vol., Benzotrifluoride): Form A
Compound: NC(=O)c1nc(-c2c(Cl)cccc2Cl)oc1Nc1ccc(C(=O)N2CCS(=O)(=O)CC2)cc1 [Form A, 2-(2,6-dichlorophenyl)-5-[4-(1,1-dioxo-1,4-thiazinane-4-carbonyl)anilino]oxazole-4-carboxamide]
